Laboratory results taken from patent US20080076666A1, “Formulation” (priority 2005, published 2008).
Values after ≈ are worked out from the molar mass of the structure shown. Where two headings read alike, the source gives them in different places.

Assays:
[1] = Water solubility of UV protection dyes (Table 1); conditions: for solubility: water
[2] = Photo stabilisation study of COMPOUND (V) in gelatine microcapsules exposed to daylight (HPLC); assay type: physicochemical
Protocol: The HPLC system was from Waters comprising of two 510 pumps, a 717 plus Autosampler, a System Interface Module, a Lambda-Max 480 detector and Millennium Chromatography Manager software. Chromatography was achieved on a Zorbax ODS 5 μm C18 analytical column of dimension 4.6×250 mm internal diameter maintained at 35° C. Mobile phases were unmodified water (Milli-Q grade) in reservoir A and unmodified acetonitrile in reservoir B. Linear gradient elution was used with 70 to 90% B over the first 10 minutes, then 100% B for 3 minutes and returning to 70% B over 4 minutes. Injection cycle time was 20 minutes with a flow rate of 2 ml/min. The samples were either dissolved in acetonitrile or diethyl ether and 10 μl volume injected on to the column which was maintained at 35° C. Prior to use, mobile phase were degassed under vacuum with sonication and continuously sparged with helium. The naphthoquinones were detected by measurement of UV absorbance at 269 nm.
A batch of gelatine microcapsules containing 300 mg of COMPOUND (V) in 15 ml of Exxsol® D100 was produced.
The capsule slurry was washed repeatedly with water to remove debris and filtered to obtain a wet cake. An aliquot of the wet cake (11.3 g) was made up to 50 ml and dyed brown with Chocolate Brown (500 mg, equivalent to 10 mg/ml solution). Aliquots (200 μl) of microcapsule slurry of brown and undyed capsules were applied to glass microscope slides in duplicate. The slurry from each batch was spread to form a monolayer of microcapsules on each slide. The slides were air dried in a dark at room temperature (≅21° C.) and exposed to daylight on a south-facing windowsill for various time periods. Two slides from each batch were analysed per time point post of exposure. Unexposed slides stored in the dark were used as time zero reference.
The contents of the capsules were extracted by rupturing the capsules, by rolling a glass rod on the slides, and washing both the rod and the slide with diethyl ether. The extracts were made up to 10 ml and assayed by HPLC.

CC1=NN(c2ccc(S(=O)(=O)[O-])cc2)C(=O)C1N=Nc1ccc(-c2ccc(N=Nc3ccc(OS(=O)(=O)c4ccc(C)cc4)cc3)c(S(=O)(=O)[O-])c2)cc1.[Na+].[Na+] (centres unmarked) [Acid Orange 63]
WATER SOLUBILITY [1]: 50 mg/mL

Cc1nn(-c2ccccc2)c([O-])c1N=Nc1cc([N+](=O)[O-])cc(S(=O)(=O)[O-])c1[O-].[Cr+3].[Na+].[OH-] [Acid Orange 74]
WATER SOLUBILITY [1]: 20 mg/mL

Cc1cc(N=Nc2ccc(C)c(N=Nc3cc(C)c(N)cc3N)c2)c(N)cc1N [Bismark Brown R]
solubility [1]: 70 mg/mL (≈ 180 mM)

Nc1ccc(N=Nc2cccc(N=Nc3ccc(N)cc3N)c2)c(N)c1 [Bismark Brown Y]
WATER SOLUBILITY [1]: 50 mg/mL

Cc1c(C2(c3cc(Br)c(O)c(Br)c3C)OS(=O)(=O)c3ccccc32)cc(Br)c(O)c1Br [Bromocresol Green]
solubility [1]: 6 mg/mL (≈ 8.6 mM)

CC(=O)OC1=C(C(C)CCC[Si](C)(C)C)C(=O)c2ccccc2C1=O (centres unmarked) [COMPOUND (V)]
amount of COMPOUND (V) in capsules, of the initial amount ([2]; Chocolate Brown dyed impervious gelatine microcapsules, 88 hours exposure to daylight (8 hours daylight over 11 days)): ~80% | amount of COMPOUND (V) in capsules, of the initial amount ([2]; undyed impervious gelatine microcapsules, 6 hours exposure to daylight): 60% | amount of COMPOUND (V) in capsules, of the initial amount ([2]; undyed impervious gelatine microcapsules, 16 hours exposure to daylight): 23% | amount of COMPOUND (V) in capsules, of the initial amount ([2]; undyed impervious gelatine microcapsules, 40 hours exposure to daylight (8 hours daylight over 5 days)): 6% | period for which COMPOUND (V) was stabilised on exposure to daylight ([2]; within impervious gelatine microcapsules (Chocolate Brown dyed)): in excess of eleven-days

O=S1(=O)OC(c2ccc(O)c(Cl)c2)(c2ccc(O)c(Cl)c2)c2ccccc21 [Chlorophenol Red]
WATER SOLUBILITY [1]: 60 mg/mL

Nc1c(/N=N/c2ccc(-c3ccc(/N=N/c4cc(S(=O)(=O)O)c5ccccc5c4N)cc3)cc2)cc(S(=O)(=O)O)c2ccccc12 [Congo Red]
solubility [1]: 40 mg/mL (≈ 61.3 mM)

O=S(=O)([O-])c1ccc2c(N=Nc3ccccc3)c(O)ccc2c1.[Na+] [Crocein Orange G]
WATER SOLUBILITY [1]: 40 mg/mL

CC(=O)Nc1ccc2nc3c4ccccc4c(=N)cc-3oc2c1.Cl [Darrow Red]
WATER SOLUBILITY [1]: 1 mg/mL

CCN(CC)c1ccc(N=Nc2ccc(S(=O)(=O)[O-])cc2)cc1.[K+] [Ethyl Orange]
WATER SOLUBILITY [1]: 100 mg/mL

CCN(CC)c1ccc(N=Nc2ccccc2C(=O)O)cc1 [Ethyl Red]
WATER SOLUBILITY [1]: 3 mg/mL

CN(C)c1ccc(/N=N/c2ccccc2C(=O)O)cc1 [Methyl Red]
solubility [1]: 2 mg/mL (≈ 7.43 mM)

Nc1cc(N)c(N=Nc2cccc3c(S(=O)(=O)O)cccc23)cc1N=Nc1cc([N+](=O)[O-])ccc1O.[Na] [Mordant Brown 1]
WATER SOLUBILITY [1]: 60 mg/mL

Cc1cc(N=Nc2cc([N+](=O)[O-])cc([N+](=O)[O-])c2O)c(N)cc1N [Mordant Brown 4]
WATER SOLUBILITY ([1]; hot water (remark)): 60 mg/mL

Nc1cc(N)c(S(=O)(=O)[O-])cc1N=Nc1cc([N+](=O)[O-])ccc1O.[Na+] [Mordant Brown 33]
WATER SOLUBILITY [1]: 20 mg/mL

Nc1cc(N)c(N=Nc2cc([N+](=O)[O-])cc([N+](=O)[O-])c2O)cc1Cl [Mordant Brown 48]
WATER SOLUBILITY [1]: 40 mg/mL

Cc1cc(O)ccc1C1(c2ccc(O)cc2C)OS(=O)(=O)c2ccccc21 [m-Cresol Purple]
WATER SOLUBILITY [1]: 2 mg/mL

Acid Orange 51
WATER SOLUBILITY [1]: 30 mg/mL
